PMC10609608, “Design, Synthesis, In Vitro Biological Evaluation and In Silico Molecular Docking Study of Benzimidazole-Based Oxazole Analogues: A Promising Acetylcholinesterase and Butyrylcholinesterase Inhibitors” (Molecules, 2023)

Columns and labels:
[1] = biological target: acetylcholinesterase (AChE) (Homo sapiens, UniProt P22303); test: biochemical; conditions: in vitro; donepezil as standard; read-out: AChE IC50 ± SEM
Description: (§1) According to previously established protocols, in vitro AChE and BuChE inhibition profiles were evaluated with slight modifications.

[2] = biological target: butyrylcholinesterase (BuChE) (Homo sapiens, UniProt P06276); test: biochemical; conditions: in vitro; donepezil as standard; read-out: BuChE IC50 ± SEM
butyrylcholinesterase (BuChE), sequence (P06276 29-602): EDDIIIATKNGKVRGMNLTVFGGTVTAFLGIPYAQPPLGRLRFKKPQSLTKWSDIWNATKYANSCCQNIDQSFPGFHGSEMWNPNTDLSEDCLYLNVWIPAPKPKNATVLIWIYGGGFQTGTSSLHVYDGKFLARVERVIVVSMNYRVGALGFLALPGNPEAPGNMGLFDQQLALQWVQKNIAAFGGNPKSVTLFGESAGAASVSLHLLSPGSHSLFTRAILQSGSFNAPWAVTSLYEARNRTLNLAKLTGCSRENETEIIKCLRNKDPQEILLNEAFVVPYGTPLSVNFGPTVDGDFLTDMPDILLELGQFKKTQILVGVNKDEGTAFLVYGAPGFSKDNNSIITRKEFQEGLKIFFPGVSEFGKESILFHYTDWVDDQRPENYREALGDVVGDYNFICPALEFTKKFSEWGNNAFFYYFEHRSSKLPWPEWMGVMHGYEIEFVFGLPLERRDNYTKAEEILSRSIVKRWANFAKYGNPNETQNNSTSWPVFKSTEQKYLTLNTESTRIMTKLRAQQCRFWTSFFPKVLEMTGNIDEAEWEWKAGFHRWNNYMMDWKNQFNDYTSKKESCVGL
Description: as §1

acetylcholinesterase (AChE), sequence (P22303 32-614): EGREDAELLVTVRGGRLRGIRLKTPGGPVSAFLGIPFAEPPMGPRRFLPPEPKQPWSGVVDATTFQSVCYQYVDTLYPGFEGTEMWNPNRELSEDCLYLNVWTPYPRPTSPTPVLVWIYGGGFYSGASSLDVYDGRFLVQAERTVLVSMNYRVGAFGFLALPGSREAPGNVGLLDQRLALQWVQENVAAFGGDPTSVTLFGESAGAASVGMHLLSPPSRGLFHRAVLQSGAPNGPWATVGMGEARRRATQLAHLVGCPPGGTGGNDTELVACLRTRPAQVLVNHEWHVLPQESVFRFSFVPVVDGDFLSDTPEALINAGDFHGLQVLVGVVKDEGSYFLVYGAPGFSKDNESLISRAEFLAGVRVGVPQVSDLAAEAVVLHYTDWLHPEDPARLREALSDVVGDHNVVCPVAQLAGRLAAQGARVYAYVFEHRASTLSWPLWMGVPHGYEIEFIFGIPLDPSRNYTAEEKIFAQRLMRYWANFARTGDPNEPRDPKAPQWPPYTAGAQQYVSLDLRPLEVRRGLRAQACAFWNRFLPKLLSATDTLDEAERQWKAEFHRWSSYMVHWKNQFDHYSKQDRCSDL

Compound | IC50 [1] [nM] | IC50 [2] [µM]
Cc1ccc(/C(CSc2nc3ccccc3[nH]2)=N\Nc2nc(-c3ccc(Cl)c(Cl)c3)co2)cc1 [Compound 6, (E)-2-(2-(2-((1H-Benzo[d]imidazol-2-yl)thio)-1-(p-tolyl)ethylidene)hydrazinyl)-4-(3,4-dichlorophenyl)oxazole] | 400 ± 50 | 1.1 ± 0.05
O=[N+]([O-])c1cccc(-c2coc(N/N=C(/CSc3nc4ccccc4[nH]3)c3ccccc3)n2)c1 [Compound 10, (E)-2-(2-(2-((1H-Benzo[d]imidazol-2-yl)thio)-1-phenylethylidene)hydrazinyl)-4-(3-nitrophenyl)oxazole] | 1400 ± 100 | 2.1 ± 0.1
COc1cccc(-c2coc(N/N=C(/CSc3nc4ccccc4[nH]3)c3ccc(Cl)cc3)n2)c1 [Compound 19, (E)-2-(2-(2-((1H-Benzo[d]imidazol-2-yl)thio)-1-(4-chlorophenyl)ethylidene)hydrazinyl)-4-(3-methoxyphenyl)oxazole] | 2700 ± 200 | 3.7 ± 0.1
Cc1ccc(/C(CSc2nc3ccccc3[nH]2)=N\Nc2nc(-c3ccc(C)cc3)co2)cc1 [Compound 4, (E)-2-(2-(2-((1H-Benzo[d]imidazol-2-yl)thio)-1-(p-tolyl)ethylidene)hydrazinyl)-4-(p-tolyl)oxazole] | 6500 ± 200 | 8.3 ± 0.2
Cc1ccc(/C(CSc2nc3ccccc3[nH]2)=N\Nc2nc(-c3ccc(Cl)cc3Cl)co2)cc1 [Compound 14, (E)-2-(2-(2-((1H-Benzo[d]imidazol-2-yl)thio)-1-(p-tolyl)ethylidene)hydrazinyl)-4-(2,4-dichlorophenyl)oxazole] | 200 ± 50 | 0.3 ± 0.05
O=[N+]([O-])c1ccccc1-c1coc(N/N=C(/CSc2nc3ccccc3[nH]2)c2ccccc2)n1 [Compound 17, (E)-2-(2-(2-((1H-Benzo[d]imidazol-2-yl)thio)-1-phenylethylidene)hydrazinyl)-4-(2-nitrophenyl)oxazole] | 2500 ± 100 | 3.5 ± 0.1
Cc1ccc(-c2coc(N/N=C(/CSc3nc4ccccc4[nH]3)c3ccc(-c4ccccc4)cc3)n2)cc1 [Compound 16, (E)-2-(2-(2-((1H-Benzo[d]imidazol-2-yl)thio)-1-([1,1′-biphenyl]-4-yl)ethylidene) Hydrazinyl)-4-(p-tolyl)oxazole] | 6100 ± 100 | 9.3 ± 0.1
Cc1ccc(/C(CSc2nc3ccccc3[nH]2)=N\Nc2nc(-c3ccccc3)co2)cc1 [Compound 13, (E)-2-(2-(2-((1H-Benzo[d]imidazol-2-yl)thio)-1-(p-tolyl)ethylidene)hydrazinyl)-4-phenyloxazole] | 8100 ± 100 | 9.7 ± 0.1
COc1ccc(/C(CSc2nc3ccccc3[nH]2)=N\Nc2nc(-c3ccccc3[N+](=O)[O-])co2)cc1 [Compound 1, (E)-2-(2-(2-((1H-Benzo[d]imidazol-2-yl)thio)-1-(4-methoxyphenyl)ethylidene)hydrazinyl)-4-(2-nitrophenyl)oxazole] | 1100 ± 100 | 1.8 ± 0.1
Cc1ccc(/C(CSc2nc3ccccc3[nH]2)=N\Nc2nc(-c3ccccc3[N+](=O)[O-])co2)cc1 [Compound 2, (E)-2-(2-(2-((1H-Benzo[d]imidazol-2-yl)thio)-1-(p-tolyl)ethylidene)hydrazinyl)-4-(2-nitrophenyl)oxazole] | 1600 ± 10 | 1.9 ± 0.1
O=[N+]([O-])c1cccc(-c2coc(N/N=C(/CSc3nc4ccccc4[nH]3)c3ccc(Cl)cc3)n2)c1 [Compound 11, (E)-2-(2-(2-((1H-Benzo[d]imidazol-2-yl)thio)-1-(4-chlorophenyl)ethylidene)hydrazi-nyl)-4-(3-nitrophenyl)oxazole] | 700 ± 50 | 1.2 ± 0.01
COc1cccc(-c2coc(N/N=C(/CSc3nc4ccccc4[nH]3)c3ccccc3)n2)c1 [Compound 15, (E)-2-(2-(2-((1H-Benzo[d]imidazol-2-yl)thio)-1-phenylethylidene)hydrazinyl)-4-(3-methoxyphenyl)oxazole] | 5400 ± 100 | 7.2 ± 0.1
COc1cccc(-c2coc(N/N=C(/CSc3nc4ccccc4[nH]3)c3ccc(C)cc3)n2)c1 [Compound 5, (E)-2-(2-(2-((1H-Benzo[d]imidazol-2-yl)thio)-1-(p-tolyl)ethylidene)hydrazinyl)-4-(3-methoxyphenyl)oxazole] | 9800 ± 200 | 11.5 ± 0.2
Cc1ccc(/C(CSc2nc3ccccc3[nH]2)=N\Nc2nc(-c3cccc([N+](=O)[O-])c3)co2)cc1 [Compound 3, (E)-2-(2-(2-((1H-Benzo[d]imidazol-2-yl)thio)-1-(p-tolyl)ethylidene)hydrazinyl)-4-(3-nitrophenyl)oxazole] | 4400 ± 100 | 5.8 ± 0.1
O=[N+]([O-])c1ccccc1-c1coc(N/N=C(/CSc2nc3ccccc3[nH]2)c2ccc(Cl)cc2)n1 [Compound 18, (E)-2-(2-(2-((1H-Benzo[d]imidazol-2-yl)thio)-1-(4-chlorophenyl)ethylidene)hydrazinyl)-4-(2-nitrophenyl)oxazole] | 800 ± 100 | 1.7 ± 0.1
CN(C)c1ccc(/C(CSc2nc3ccccc3[nH]2)=N\Nc2nc(-c3ccc(Br)cc3)co2)cc1 [Compound 7, (E)-4-(2-((1H-Benzo[d]imidazol-2-yl)thio)-1-(2-(4-(4-bromophenyl)oxazol-2-yl)hydrazono)ethyl)-N,N-dimethylaniline] | 12600 ± 300 | 16.3 ± 0.3
COc1ccccc1-c1coc(N/N=C(/CSc2nc3ccccc3[nH]2)c2ccc(C)cc2)n1 [Compound 8, (E)-2-(2-(2-((1H-Benzo[d]imidazol-2-yl)thio)-1-(p-tolyl)ethylidene)hydrazinyl)-4-(2-methoxyphenyl)oxazole] | 5300 ± 200 | 7.2 ± 0.1
